Patent publication US20250195521A1 (Revolution Medicines, Inc., priority 2020, published 2025)

What was measured:
[1] = target: KRAS G12V binding to BRAF RBD (Homo sapiens (Human), UniProt P01116+P62937, G12V); assay: Ras-Raf disruption/FRET/MOA assay, KRAS G12V; format: biochemical; conditions: read-out: KRAS G12V FRET IC50
Source text: (§1) Note—The following protocol describes a procedure for monitoring disruption of K-Ras G12C(GMP-PNP) binding to BRAF^RBD by a compound of the invention. This protocol may also be executed substituting other Ras proteins or nucleotides.
(§2) The purpose of this biochemical assay was to measure the ability of test compounds to facilitate ternary complex formation between a nucleotide-loaded K-Ras isoform and Cyclophilin A; the resulting ternary complex disrupts binding to a BRAF^RBD construct, inhibiting K-Ras signaling through a RAF effector. Data is reported as IC50 values.
(§3) Compound was present in plate wells as a 10-point 3-fold dilution series starting at a final concentration of 30 μM. After incubation at 25° C. for 3 hours, a mixture of Anti-His Eu—W1024 and anti-GST allophycocyanin was then added to assay sample wells at final concentrations of 10 nM and 50 nM, respectively, and the reaction incubated for an additional 1.5 hours. […] Compounds that facilitate disruption of a K-Ras: RAF complex were identified as those eliciting a decrease in the TR-FRET ratio relative to DMSO control wells.

[2] = target: KRAS G12S binding to BRAF RBD (Homo sapiens (Human), UniProt P01116+P62937, G12S); assay: Ras-Raf disruption/FRET/MOA assay, KRAS G12S; format: biochemical
KRAS G12S binding to BRAF RBD, sequence (P01116 other isoform, or with tags, fused parts or gaps G12S): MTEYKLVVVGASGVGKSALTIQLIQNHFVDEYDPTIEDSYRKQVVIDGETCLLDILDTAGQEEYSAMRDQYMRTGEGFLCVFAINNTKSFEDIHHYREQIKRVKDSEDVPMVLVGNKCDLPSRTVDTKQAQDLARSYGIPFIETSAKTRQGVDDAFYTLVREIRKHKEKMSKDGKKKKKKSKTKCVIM
KRAS G12S binding to BRAF RBD, sequence (P62937 whole entry): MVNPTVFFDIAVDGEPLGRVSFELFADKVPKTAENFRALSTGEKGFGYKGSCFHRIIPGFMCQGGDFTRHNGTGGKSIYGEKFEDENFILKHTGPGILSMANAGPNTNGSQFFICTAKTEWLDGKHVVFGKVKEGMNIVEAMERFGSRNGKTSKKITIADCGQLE
Source text: as §1, §2, §3

[3] = target: K-Ras G12C(GMP-PNP) binding to BRAF RBD (Homo sapiens (Human), UniProt P01116+P62937, G12C); assay: Disruption of BRAF RBD interaction with K-Ras (FRET / MOA assay), K-Ras G12C; format: biochemical; conditions: read-out: KRAS G12C FRET IC50
K-Ras G12C(GMP-PNP) binding to BRAF RBD, sequence (P01116 other isoform, or with tags, fused parts or gaps G12C): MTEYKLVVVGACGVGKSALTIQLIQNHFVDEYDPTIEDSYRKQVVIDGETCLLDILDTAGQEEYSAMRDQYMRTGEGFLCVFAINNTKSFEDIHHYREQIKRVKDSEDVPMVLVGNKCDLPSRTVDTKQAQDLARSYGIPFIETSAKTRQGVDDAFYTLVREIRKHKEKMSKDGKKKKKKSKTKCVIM
K-Ras G12C(GMP-PNP) binding to BRAF RBD, sequence (P62937 whole entry): as the sequence (P62937 whole entry) above
Outline: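 First, test compounds in a 10-point 3-fold series (30 μM final top) were incubated for 3 hours at 25° C with nucleotide-loaded Ras, cyclophilin A and a BRAF RBD construct. Next, Eu anti-His and allophycocyanin anti-GST detection reagents were added for 1.5 hours. Finally, IC50s were derived from loss of TR-FRET signal against DMSO.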

NCI-H358 (K-Ras G12C) = assay: CellTiter-Glo cell viability assay, NCI-H358; format: cell-based, human; conditions: Homo sapiens, NCI-H358, 120 h, 5-day treatment; read-out: H358 Cell Viability assay data (K-Ras G12C, IC50)
Outline: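 Viability is measured as ATP-dependent luminescence (CellTiter-Glo) five days into compound treatment. Responses are normalized to vehicle (DMSO) wells and fitted by four-parameter logistic regression.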

NRAS WT = NRAS WT (Homo sapiens (Human), UniProt P01111+P62937); assay: Ras-Raf disruption/FRET/MOA assay (BRAF RBD, Cyclophilin A); format: biochemical
NRAS WT, sequence (P01111 whole entry): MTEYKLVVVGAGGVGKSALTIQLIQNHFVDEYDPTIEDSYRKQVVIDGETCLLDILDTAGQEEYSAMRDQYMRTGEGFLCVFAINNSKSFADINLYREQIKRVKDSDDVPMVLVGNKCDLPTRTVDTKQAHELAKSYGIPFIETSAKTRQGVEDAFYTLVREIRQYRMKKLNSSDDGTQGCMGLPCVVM
NRAS WT, sequence (P62937 whole entry): as the sequence (P62937 whole entry) above
Outline: (§4)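 Ras-GMPPNP (12.5 nM), BRAF RBD (50 nM) and 25 μM Cyclophilin A were incubated with compound for 3 h at 25° C, then detected 1.5 h with anti-His Eu and anti-GST APC; IC50 values follow from the reduced TR-FRET ratio.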

KRAS G13C = KRAS G13C (Homo sapiens (Human), UniProt P01116+P62937, G13C); assay: as above; format: biochemical; conditions: read-out: KRAS G13C FRET IC50
KRAS G13C, sequence (P01116 other isoform, or with tags, fused parts or gaps G13C): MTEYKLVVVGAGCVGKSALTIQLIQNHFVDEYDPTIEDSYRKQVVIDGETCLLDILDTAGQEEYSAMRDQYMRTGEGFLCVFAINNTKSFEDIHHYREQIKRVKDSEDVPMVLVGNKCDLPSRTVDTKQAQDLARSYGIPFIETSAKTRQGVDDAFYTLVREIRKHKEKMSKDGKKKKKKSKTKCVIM
KRAS G13C, sequence (P62937 whole entry): as the sequence (P62937 whole entry) above
Outline: (§5)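 First, 25 μM Cyclophilin A, 12.5 nM His6-Ras-GMPPNP and 50 nM GST-BRAF RBD are mixed with diluted compound at pH 7.3. Next, 3 h at 25° C. Then 10 nM anti-His Eu-W1024 plus 50 nM anti-GST allophycocyanin for 1.5 h before TR-FRET reading.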

NRAS Q61K = NRAS Q61K (Homo sapiens (Human), UniProt P01111+P62937, Q61K); assay: as above; format: biochemical
Outline: as §4

KRAS G13D = KRAS G13D (Homo sapiens (Human), UniProt P01116+P62937, G13D); assay: as above; format: biochemical; conditions: read-out: KRAS G13D FRET data IC50
KRAS G13D, sequence (P01116 other isoform, or with tags, fused parts or gaps G13D): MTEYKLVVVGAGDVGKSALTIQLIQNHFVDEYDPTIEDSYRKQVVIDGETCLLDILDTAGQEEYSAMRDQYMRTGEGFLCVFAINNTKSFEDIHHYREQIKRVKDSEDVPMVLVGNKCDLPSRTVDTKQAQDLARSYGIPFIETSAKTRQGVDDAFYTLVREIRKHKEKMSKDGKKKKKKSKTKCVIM
KRAS G13D, sequence (P62937 whole entry): as the sequence (P62937 whole entry) above
Outline: as §5

KRAS G12C = KRAS G12C (Homo sapiens (Human), UniProt P01116+P62937, G12C); assay: as above; format: biochemical; conditions: read-out: KRAS G12C FRET IC50
Outline: as §5

KRAS Q61H = KRAS Q61H (Homo sapiens (Human), UniProt P01116+P62937, Q61H); assay: as above; format: biochemical
Outline: as §5

KRAS G12S = KRAS G12S (Homo sapiens (Human), UniProt P01116+P62937, G12S); assay: as above; format: biochemical; conditions: read-out: KRAS G12S FRET IC50
KRAS G12S, sequence (P01116 other isoform, or with tags, fused parts or gaps G12S): as the sequence (P01116 other isoform, or with tags, fused parts or gaps G12S) above
KRAS G12S, sequence (P62937 whole entry): as the sequence (P62937 whole entry) above
Outline: as §5

NRAS G12C = NRAS G12C (Homo sapiens (Human), UniProt P01111+P62937, G12C); assay: as above; format: biochemical; conditions: read-out: NRAS G12C FRET data IC50
NRAS G12C, sequence (P01111 whole entry G12C): as the sequence (P01111 whole entry) above, with G12C counted along it
NRAS G12C, sequence (P62937 whole entry): as the sequence (P62937 whole entry) above
Outline: as §4

KRAS WT = KRAS WT (Homo sapiens (Human), UniProt P01116+P62937); assay: as above; format: biochemical; conditions: read-out: KRAS WT FRET data IC50
Outline: as §5

KRAS G12D = KRAS G12D (Homo sapiens (Human), UniProt P01116+P62937, G12D); assay: as above; format: biochemical; conditions: read-out: KRAS G12D FRET IC50
KRAS G12D, sequence (P01116 other isoform, or with tags, fused parts or gaps G12D): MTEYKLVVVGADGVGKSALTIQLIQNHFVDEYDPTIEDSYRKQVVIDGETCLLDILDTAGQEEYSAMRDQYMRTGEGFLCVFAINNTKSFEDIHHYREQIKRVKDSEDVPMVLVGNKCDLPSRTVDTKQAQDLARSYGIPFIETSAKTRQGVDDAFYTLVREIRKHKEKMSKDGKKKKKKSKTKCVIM
KRAS G12D, sequence (P62937 whole entry): as the sequence (P62937 whole entry) above
Outline: as §5

KRAS G12V = KRAS G12V (Homo sapiens (Human), UniProt P01116+P62937, G12V); assay: as above; format: biochemical; conditions: read-out: KRAS G12V FRET IC50
KRAS G12V, sequence (P01116 other isoform, or with tags, fused parts or gaps G12V): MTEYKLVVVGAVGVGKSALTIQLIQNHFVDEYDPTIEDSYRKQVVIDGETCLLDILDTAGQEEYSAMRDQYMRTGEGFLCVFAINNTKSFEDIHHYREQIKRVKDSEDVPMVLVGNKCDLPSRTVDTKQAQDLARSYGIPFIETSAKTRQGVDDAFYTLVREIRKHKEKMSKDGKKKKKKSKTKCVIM
KRAS G12V, sequence (P62937 whole entry): as the sequence (P62937 whole entry) above
Outline: as §5

NRAS Q61R = NRAS Q61R (Homo sapiens (Human), UniProt P01111+P62937, Q61R); assay: as above; format: biochemical
NRAS Q61R, sequence (P01111 whole entry Q61R): as the sequence (P01111 whole entry) above, with Q61R counted along it
NRAS Q61R, sequence (P62937 whole entry): as the sequence (P62937 whole entry) above
Outline: as §4

[4] = target: KRAS WT binding to BRAF RBD (Homo sapiens (Human), UniProt P01116+P62937); assay: Ras-Raf disruption/FRET/MOA assay, KRAS WT; format: biochemical
KRAS WT binding to BRAF RBD, sequence (P01116 other isoform, or with tags, fused parts or gaps): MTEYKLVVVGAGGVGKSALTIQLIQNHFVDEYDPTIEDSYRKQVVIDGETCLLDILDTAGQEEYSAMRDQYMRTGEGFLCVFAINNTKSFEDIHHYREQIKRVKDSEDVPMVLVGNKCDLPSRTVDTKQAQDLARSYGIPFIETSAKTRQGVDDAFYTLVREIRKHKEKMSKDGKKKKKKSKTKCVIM
KRAS WT binding to BRAF RBD, sequence (P62937 whole entry, the tested form may be a part): as the sequence (P62937 whole entry) above
Source text: Disruption of B-Raf Ras-binding Domain (BRAF^RBD) Interaction with K-Ras by Compounds of the Invention (also called a FRET assay or an MOA assay)
as §1, §2
as §3, with “In assay buffer containing 25 mM HEPES pH 7.3, 0.002% Tween20, 0.1% BSA, 100 mM NaCl and 5 mM MgCl2, tagless Cyclophilin A, His6-K-Ras-GMPPNP, and GST-BRAF^RBD were combined in a 384-well assay plate at final concentrations of 25 μM, 12.5 nM and 50 nM, respectively. Compound was” for “Compound was”

[5] = system: Capan-1 cells (K-Ras G12V); assay: CellTiter-Glo cell viability, Capan-1; format: cell-based, human; conditions: Homo sapiens, CAPAN-1, 120 h, K-Ras G12V, 5-day treatment; read-out: Capan-1 Cell Viability IC50
Outline: (§6)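 Viability is read as luminescence after five days of compound exposure, with plates first equilibrated to room temperature for roughly 30 minutes. Each signal is expressed as a percentage of the mean DMSO control, and curves are fitted by four-parameter logistic regression.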

[6] = system: NCI-H358 cells (K-Ras G12C); assay: CellTiter-Glo cell viability, NCI-H358; format: cell-based, human; conditions: Homo sapiens, NCI-H358, 120 h, K-Ras G12C, 5-day treatment; read-out: H358 Cell Viability IC50
Outline: as §6

[7] = system: K-Ras G12C (NCI-H358 cells); assay: Potency assay: pERK in NCI-H358 cells; format: cell-based, human; conditions: Homo sapiens; NCI-H358 cells, 4 hours; read-out: pERK EC50 (H358 KRAS G12C)
Outline: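 Cells plated the day before were exposed for 4 h at 37° C, 5% CO2 to a 10-point, 3-fold DMSO dilution series (10 mM top stock), in duplicate. Phospho-ERK was read by AlphaLISA SureFire Ultra or by In-Cell Western with DRAQ5 DNA stain, and IC50 came from a 4-parameter sigmoidal fit.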

[8] = target: NRAS G12C binding to BRAF RBD (Homo sapiens (Human), UniProt P01111+P62937, G12C); assay: Ras-Raf disruption/FRET/MOA assay, NRAS G12C; format: biochemical
NRAS G12C binding to BRAF RBD, sequence (P01111 whole entry G12C): as the sequence (P01111 whole entry) above, with G12C counted along it
NRAS G12C binding to BRAF RBD, sequence (P62937 whole entry): as the sequence (P62937 whole entry) above
Outline: (§7)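 TR-FRET ratio drop relative to DMSO wells marks disruption of the Ras–RAF complex, reported as IC50. Compounds promote a Ras(nucleotide)–cyclophilin A ternary complex that blocks BRAF RBD binding; dosing was 10 points, 3-fold, top 30 μM final, 3 h at 25° C before detection.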

[9] = target: KRAS G13D binding to BRAF RBD (Homo sapiens (Human), UniProt P01116+P62937, G13D); assay: Ras-Raf disruption/FRET/MOA assay, KRAS G13D; format: biochemical
KRAS G13D binding to BRAF RBD, sequence (P01116 other isoform, or with tags, fused parts or gaps G13D): as the sequence (P01116 other isoform, or with tags, fused parts or gaps G13D) above
KRAS G13D binding to BRAF RBD, sequence (P62937 whole entry): as the sequence (P62937 whole entry) above
Outline: as §7

KRAS G12V binding to BRAF RBD, sequence (P01116 other isoform, or with tags, fused parts or gaps G12V): as the sequence (P01116 other isoform, or with tags, fused parts or gaps G12V) above
KRAS G12V binding to BRAF RBD, sequence (P62937 whole entry): as the sequence (P62937 whole entry) above

Row | IC50 [1] [nM] | IC50 [2] [nM] | IC50 [3] [nM] | IC50 (NCI-H358 (K-Ras G12C)) [nM] | IC50 [4] [nM] | IC50 [6] [nM] | EC50 [7] [nM] | Compound | also measured
1 | 10 to 100 | 10 to 100 | < 10 | – | – | – | – | CCn1c(-c2cccnc2[C@H](C)OC)c2c3cc(ccc31)-c1cc(O)cc(c1)C[C@H](NC(=O)C(C1CC1)C1CC1)C(=O)N1CCC[C@H](N1)C(=O)OCC(C)(C)C2 [Compound A184] | –
2 | 10 to 100 | 10 to 100 | 10 to 100 | 10 to 100 | 10 to 100 | 100 to 1000 | – | CCn1c(-c2cccnc2[C@H](C)OC)c2c3cc(ccc31)-c1csc(n1)C[C@H](NC(=O)N1CC[C@@H]1COC)C(=O)N1CCC[C@H](N1)C(=O)OCC(C)(C)C2 [Compound A264] | IC50 (NRAS WT): 100 to 1000 nM; IC50 (KRAS G13C): 100 to 1000 nM; IC50 (NRAS Q61K): 100 to 1000 nM; IC50 (KRAS G13D): 100 to 1000 nM; IC50 (KRAS G12C): 10 to 100 nM; IC50 (KRAS Q61H): 100 to 1000 nM; IC50 (KRAS G12S): 100 to 1000 nM; IC50 (NRAS G12C): 10 to 100 nM; IC50 (KRAS WT): 100 to 1000 nM; IC50 (KRAS G12D): 100 to 1000 nM; IC50 (KRAS G12V): 10 to 100 nM; IC50 (NRAS Q61R): 100 to 1000 nM; IC50 [5]: 100 to 1000 nM
3 | 10 to 100 | 10 to 100 | < 10 | < 10 | – | – | < 5000 | CCn1c(-c2cccnc2[C@H](C)OC)c2c3cc(ccc31)-c1cc(O)cc(c1)C[C@H](NC(=O)[C@H](C(C)C)N(C)C(=O)[C@H]1CCC(C(=O)C#CCOC)C1)C(=O)N1CCC[C@H](N1)C(=O)OCC(C)(C)C2 (stereo partly drawn) [Compound A266] | IC50 [8]: < 10 nM; IC50 [9]: 100 to 1000 nM
4 | 10 to 100 | 10 to 100 | 10 to 100 | < 10 | 10 to 100 | 10 to 100 | < 5000 | CCn1c(-c2cccnc2[C@H](C)OC)c2c3cc(ccc31)-c1csc(n1)C[C@H](NC(=O)[C@H](C(C)C)N(C)C(=O)N1CCCC[C@@H](N(C)C)C1)C(=O)N1CCC[C@H](N1)C(=O)OCC(C)(C)C2 [Compound A492] | –
